This note sets out measurements from patent publication US11840686B2, “Modulation of prekallikrein (PKK) expression” (Ionis Pharmaceuticals, Inc., priority 2013, dated 2023).

Strand notation (5' to 3'): a small letter for the sugar, then the base; units joined by * are phosphorothioate-linked, units joined directly phosphodiester-linked; [ ] holds rarer units or linkages, { } end groups; capitals alone tell only the bases. e = 2'-O-(2-methoxyethyl) (MOE); [5mC] = 5-methylcytosine; d = 2'-deoxy (DNA)

The data set concerns human PKK mRNA. The data set can be described thus: Antisense inhibition of human PKK mRNA in HepaRG cells, 5,000 nM (Example 2). Format: cell-based. The procedure, abridged:
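Percent inhibition of PKK mRNA is relative to untreated control, with qRT-PCR (probe set RTS3454) values adjusted to total RNA by RIBOGREEN. Oligonucleotides, fully phosphorothioate 2′-MOE gapmers, were delivered at 5,000 nM by electroporation into 20,000 HepaRG cells/well for about 24 h.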

Where [1] appears, read: HepaRG cells, electroporation with 5,000 nM antisense oligonucleotide, approximately 24 hours, PKK mRNA by RT-PCR (RTS3454), relative to untreated control cells, Table 5 experiment.
Where [2] appears, read: Table 9 experiment, HepaRG cells, 20,000 cells per well, electroporation with 5,000 nM antisense oligonucleotide, approx. 24 hours, PKK mRNA by RT-PCR (RTS3454), relative to untreated control cells.
The mark [3] stands for this setting: Table 10 experiment, HepaRG cells, 20,000 cells per well, electroporation with 5,000 nM antisense oligonucleotide, approx. 24 hours, PKK mRNA by RT-PCR (RTS3454), relative to untreated control cells.
[4] abbreviates: Table 7, HepaRG cells, electroporation with 5,000 nM antisense oligonucleotide, approx. 24 hours, PKK mRNA by RT-PCR (RTS3454), relative to untreated control cells.
Where [5] appears, read: HepaRG cells, electroporation, 5,000 nM antisense oligonucleotide, approx. 24 hours, primer probe set RTS3454, relative to untreated control cells, Table 11.
[6] abbreviates: Table 13, human PKK mRNA in HepaRG cells, 5-10-5 gapmers.
[7] abbreviates: HepaRG cells, 5,000 nM antisense oligonucleotide, 5-10-5 gapmers, Table 16.
[8] abbreviates: Table 8, HepaRG cells, electroporation with 5,000 nM antisense oligonucleotide, approx. 24 hours, PKK mRNA by RT-PCR (RTS3454), relative to untreated control cells.
Setting [9] is: human PKK mRNA in HepaRG cells, 5-10-5 gapmers, Table 14.
Where [10] appears, read: HepaRG cells, 5,000 nM antisense oligonucleotide, 5-10-5 gapmers, Table 17.
Where [11] appears, read: HepaRG cells, electroporation, 5,000 nM antisense oligonucleotide, approx. 24 hours, primer probe set RTS3454, relative to untreated control cells, Table 12.
The mark [12] stands for this setting: human PKK mRNA, HepaRG cells, 5,000 nM antisense oligonucleotide, Table 18.
The mark [13] stands for this setting: human PKK mRNA, HepaRG cells, 5-10-5 motif oligonucleotides targeting SEQ ID NO: 1 and 10.

One may read the % inhibition as the percentage by which the read-out fell short of the control. Lower therefore signals little suppression. In the case of “547313 (antisense eG*eT*eT*e[5mC]*eG*dA*dT*dG*dT*dA*d[5mC]*dT*dT*dT*dT*eG*eG*e[5mC]*eA*eG) [compound 547313]”, the “% inhibition” value under setting [1] came out at 73%.
As for “547479 (antisense eT*eA*eT*eA*eA*dT*d[5mC]*dT*dT*dG*dA*dT*dA*dT*d[5mC]*eT*eT*eT*eT*e[5mC]) [compound 547479]”, the “% inhibition” value runs as follows: under setting [2], 48%; under setting [3], 9%.
For “546327 (antisense eG*eG*eT*eT*eA*d[5mC]*d[5mC]*d[5mC]*dA*dA*d[5mC]*dA*dG*dT*dT*eG*eG*eT*eA*eT) [compound 546327]”, in that order: 95% and 84%.
In the case of “547400 (eT*eG*eG*e[5mC]*eA*dG*dG*dG*dT*dT*d[5mC]*dA*dG*dG*dT*eA*eA*eA*eG*eT; antisense) [compound 547400]”, under setting [4], the “% inhibition” value is listed as 0%.
As to “546167 (e[5mC]*eT*e[5mC]*e[5mC]*eA*dT*dG*dT*d[5mC]*dA*dT*dT*dG*dA*dT*eT*eG*eA*eA*e[5mC]; antisense) [compound 546167]”, the “% inhibition” value under setting [1] is listed as 73%.
For the substance “547396 (eT*e[5mC]*eA*eG*eG*dT*dA*dA*dA*dG*dT*dT*d[5mC]*dT*dT*eT*eT*eG*e[5mC]*eA; antisense) [compound 547396]”, under setting [4], the “% inhibition” value turned out to be 49%.
In the case of “547503 (antisense eA*e[5mC]*eT*e[5mC]*eA*dG*dG*dT*dT*dG*dT*dA*dA*dA*dA*eA*eT*eT*eG*e[5mC]) [compound 547503]”, the “% inhibition” value under setting [5] came to 66%.
As for “546351 (antisense eT*eT*eG*e[5mC]*eT*d[5mC]*d[5mC]*d[5mC]*dT*dG*d[5mC]*dG*dG*dG*d[5mC]*eA*e[5mC]*eA*eG*e[5mC]) [compound 546351]”, the “% inhibition” value under setting [2] was 82% and the “% inhibition” value under setting [3] is given as 60%.
For the substance “546732 (eG*eG*eA*eT*eT*dT*dG*dG*d[5mC]*d[5mC]*d[5mC]*dT*dG*dA*dG*e[5mC]*e[5mC]*e[5mC]*e[5mC]*eA; antisense) [compound 546732]”, the “% inhibition” value under setting [6] stood at 14%.
Consider “547699 (antisense eT*eA*e[5mC]*e[5mC]*eT*dA*dT*dA*dA*d[5mC]*dT*dA*dT*dA*dA*e[5mC]*eA*eA*eT*eA) [compound 547699]”, for which the “% inhibition” value under setting [7] was found to be 10%.
“546299 (antisense eA*eT*eG*e[5mC]*e[5mC]*dA*d[5mC]*dT*dA*dT*dA*dG*dA*dT*dG*e[5mC]*eG*e[5mC]*e[5mC]*eA) [compound 546299]”: the “% inhibition” value under setting [8] stood at 84%.
On to “546867 (eA*e[5mC]*e[5mC]*eT*eA*dT*dA*dA*d[5mC]*dT*d[5mC]*dT*dA*dA*d[5mC]*eA*eG*eT*eA*eT; antisense) [compound 546867]”, for which the “% inhibition” value under setting [9] was 40%.
Consider “546156 (eG*eA*eA*eT*eG*dT*dG*d[5mC]*dA*d[5mC]*d[5mC]*dT*d[5mC]*dA*dT*e[5mC]*eT*eG*eG*e[5mC]; antisense) [compound 546156]”, for which the “% inhibition” value under setting [1] is given as 81%.
For “547000 (eT*e[5mC]*eT*eG*eT*dT*dA*d[5mC]*d[5mC]*dT*dT*dG*dA*dG*dG*eA*eT*eT*eG*eT; antisense) [compound 547000]”, the “% inhibition” value under setting [10] is 63%.
Take “547556 (eG*e[5mC]*e[5mC]*eA*eT*dT*dT*dT*dA*dT*d[5mC]*d[5mC]*d[5mC]*dT*dG*eA*eG*eA*eT*eT; antisense) [compound 547556]”: the “% inhibition” value under setting [11] is recorded as 55%.
As for “548777 (antisense eG*eT*eA*eA*d[5mC]*dA*dG*dT*dA*dT*d[5mC]*dA*d[5mC]*eT*eG*eT*eA) [compound 548777]”, the “% inhibition” value under setting [12] is given as 41%.
In the case of “547641 (e[5mC]*eT*eG*eT*e[5mC]*d[5mC]*dT*dA*dT*dA*dA*d[5mC]*dT*dA*dT*eA*eA*e[5mC]*eA*eG; antisense) [compound 547641]”, the “% inhibition” value under setting [13] is 43%.
As for “547407 (eT*eT*e[5mC]*eA*eA*dT*dT*d[5mC]*dT*dT*d[5mC]*dT*d[5mC]*d[5mC]*dT*e[5mC]*e[5mC]*eA*eA*eA; antisense) [compound 547407]”, the “% inhibition” value under setting [4] is 59%.
Consider “546899 (e[5mC]*eT*eA*e[5mC]*e[5mC]*dT*dA*dT*dA*dA*d[5mC]*dT*d[5mC]*dT*dA*eA*e[5mC]*eA*eG*eT; antisense) [compound 546899]”, for which the “% inhibition” value under setting [13] was found to be 27%.
With “546698 (eT*eG*e[5mC]*eA*eG*dA*dG*dT*dG*dT*d[5mC]*dA*dT*d[5mC]*dT*eG*e[5mC]*eG*eA*eA; antisense) [compound 546698]”, the “% inhibition” value under setting [11] was found to be 59%.
For the substance “547519 (antisense e[5mC]*e[5mC]*eA*eG*eA*d[5mC]*dA*dT*dT*dG*dT*d[5mC]*d[5mC]*dT*d[5mC]*eA*eG*e[5mC]*eA*eG) [compound 547519]”, under setting [5], the “% inhibition” value worked out at 76%.
For “547581 (eA*eT*eA*eT*e[5mC]*dA*d[5mC]*dT*dG*dT*d[5mC]*d[5mC]*dT*dA*dT*eA*eA*e[5mC]*eT*e[5mC]; antisense) [compound 547581]”, the “% inhibition” value under setting [6] is listed as 60%.
On to “548776 (antisense e[5mC]*e[5mC]*eT*eA*dT*dA*dA*d[5mC]*dT*dA*dT*dA*dA*e[5mC]*eA*eA*eT) [compound 548776]”, for which, under setting [12], the “% inhibition” value was 0%.
Turning to “547744 (eT*eG*eG*eT*eG*dG*dT*dG*dG*dG*dA*dT*dT*dG*dG*eT*eG*eG*e[5mC]*eG; antisense) [compound 547744]”, under setting [10], the “% inhibition” value came to 65%.
Consider “547721 (e[5mC]*eT*e[5mC]*eT*eA*dT*d[5mC]*dA*dA*dA*dA*dT*d[5mC]*d[5mC]*dT*eG*e[5mC]*eT*eG*e[5mC]; antisense) [compound 547721]”, for which the “% inhibition” value under setting [7] stood at 68%.
As to “547439 (antisense eT*e[5mC]*eT*eG*eA*dG*d[5mC]*dT*dG*dT*d[5mC]*dA*dG*d[5mC]*dT*eT*e[5mC]*eA*e[5mC]*e[5mC]) [compound 547439]”, under setting [8], the “% inhibition” value was 85%.
Same read-out and setting: then “546302 (antisense eT*eG*eA*eG*eA*dA*dA*dG*dG*dT*dG*dT*dA*dT*d[5mC]*eT*eT*eT*eT*eG) [compound 546302]”, with 87%.
As for “547652 (eT*e[5mC]*eA*e[5mC]*eT*dG*dT*dA*d[5mC]*d[5mC]*dT*dA*dT*dA*dA*e[5mC]*eA*eG*eT*eA; antisense) [compound 547652]”, under setting [13], the “% inhibition” value turned out to be 59%.
On to “548721 (DNA e[5mC]*eT*eG*dT*dA*d[5mC]*dT*dA*dG*dT*dT*dT*d[5mC]*e[5mC]*eT*eA*eT; antisense) [compound 548721]”, for which the “% inhibition” value (HepaRG cells, 5,000 nM antisense oligonucleotide, human PKK mRNA, Table 18) came out at 27%.
As for “546331 (antisense eT*eT*e[5mC]*eA*e[5mC]*d[5mC]*dT*dT*dT*d[5mC]*dT*d[5mC]*d[5mC]*dT*dT*e[5mC]*eG*eA*eG*eA) [compound 546331]”, the “% inhibition” value runs as follows: under setting [2], 59%; under setting [3], 44%.
As to “546983 (eG*eA*eT*eG*eA*d[5mC]*d[5mC]*dT*dG*d[5mC]*dA*dG*dA*dT*dG*e[5mC]*eA*e[5mC]*eA*eG; antisense) [compound 546983]”, the “% inhibition” value under setting [7] is 74%.
With “547673 (eG*eA*eA*eT*eA*dT*d[5mC]*dA*d[5mC]*dT*dG*dT*d[5mC]*d[5mC]*dT*eA*eT*eA*eA*e[5mC]; antisense) [compound 547673]”, the “% inhibition” value under setting [13] amounted to 21%.
On to “547039 (eT*e[5mC]*eT*e[5mC]*eT*dA*dT*dA*d[5mC]*dA*dG*d[5mC]*dT*dG*dG*eG*e[5mC]*eA*e[5mC]*eA; antisense) [compound 547039]”, for which the “% inhibition” value under setting [10] was found to be 0%.
As to “546871 (eA*e[5mC]*eT*eG*eT*dA*d[5mC]*d[5mC]*dT*dA*dT*dA*dA*d[5mC]*dT*e[5mC]*eT*eA*eA*e[5mC]; antisense) [compound 546871]”, under setting [9], the “% inhibition” value was 73%.
For the substance “546578 (eG*eA*e[5mC]*eA*eG*dT*dG*dG*dG*d[5mC]*d[5mC]*dA*dG*dA*dG*e[5mC]*e[5mC]*eT*eT*eG; antisense) [compound 546578]”, the “% inhibition” value under setting [7] is reported as 73%.
Regarding “547314 (antisense eG*e[5mC]*eA*e[5mC]*e[5mC]*dT*dG*dT*dT*d[5mC]*dG*dA*dT*dG*dT*eA*e[5mC]*eT*eT*eT) [compound 547314]”, the “% inhibition” value (HepaRG cells, electroporation with 5,000 nM antisense oligonucleotide, approximately 24 hours, PKK mRNA by RT-PCR (RTS3454), relative to untreated control cells, Table 6 experiment) is 73%.
Take “546316 (antisense eG*e[5mC]*e[5mC]*eT*eG*dG*dA*dG*dT*dT*dT*dT*dA*dT*d[5mC]*eA*eA*eG*eG*e[5mC]) [compound 546316]”: the “% inhibition” value is, setting by setting: under setting [2], 51%; under setting [3], 60%.
In the case of “547579 (eT*eG*eT*e[5mC]*e[5mC]*dT*dA*dT*dA*dA*d[5mC]*dT*d[5mC]*dT*dA*eA*e[5mC]*eA*eG*eT; antisense) [compound 547579]”, the “% inhibition” value under setting [6] is listed as 0%.
Consider “547573 (eT*eA*eA*eG*e[5mC]*dA*dA*dG*dG*d[5mC]*d[5mC]*dT*dA*dT*dG*eT*eG*eT*eG*eG; antisense) [compound 547573]”, for which the “% inhibition” value under setting [6] is recorded as 2%.
